According to patent US12528802B2, “Heterocyclic compound” (Takeda Pharmaceutical Company Limited, priority 2019, dated 2026):

molecular target: T1, glucosylceramide synthase (Homo sapiens, UniProt Q16739); assay: Glucosylceramide synthase (GCS) enzyme assay, microsome fraction, C8 glucosylceramide quantified by Rapidfire MS/MS; type: biochemical; details: test compound 10 μM; 1.7 μM UDP-glucose, 3 μM C8 ceramide; room temperature 60 min; read-out: GCS enzyme inhibitory rate at 10 μM (%) (% of control)
T1 construct: made in house; host or cells: Expi293F cells (transient expression, pcDNA3.3-TOPO vector); microsome fraction used as enzyme source
T1 sequence (Q16739 1-394): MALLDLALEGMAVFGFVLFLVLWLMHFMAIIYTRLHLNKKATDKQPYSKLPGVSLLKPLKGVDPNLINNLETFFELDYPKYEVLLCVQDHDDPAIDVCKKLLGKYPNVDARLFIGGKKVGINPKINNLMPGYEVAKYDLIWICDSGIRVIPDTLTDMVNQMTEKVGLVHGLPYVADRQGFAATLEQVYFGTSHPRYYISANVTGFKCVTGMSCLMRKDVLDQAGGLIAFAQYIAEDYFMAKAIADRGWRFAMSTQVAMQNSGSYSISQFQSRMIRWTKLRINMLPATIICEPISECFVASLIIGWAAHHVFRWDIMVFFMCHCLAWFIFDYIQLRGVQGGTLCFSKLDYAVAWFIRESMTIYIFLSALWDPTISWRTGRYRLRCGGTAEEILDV
Method: Glucosylceramide Synthase (GCS) Assay
In enzyme assay, a microsome fraction obtained by transient expression by Expi293F™ cells (catalog number: A14527, Thermo Fisher Scientific) was used as a glucosylceramide synthase source. Liposomal C8 ceramide and UDP-glucose were used as substrates. […] After the enzymatic reaction, the analysis was performed with Rapidfire MS/MS (API-4000™, SCIEX), and C8 glucosylceramide was quantified to evaluate the inhibitory activity of the test compound against glucosylceramide synthase activity.
PcDNA3.3TOPO vector (catalog number: K830001, Thermo Fisher Scientific) into which the human GCS gene was inserted was introduced into Expi293F™ Cells (catalog number: A14527, Thermo Fisher Scientific) by using ExpiFectamine™ 293 Transfection Kit (catalog number: A14525, Thermo Fisher Scientific). The cultured cells were dissolved in D-PBS (catalog number: 048-29805, Fuji Film Wako Pure Chemical Industries, Ltd.) containing 1 mM PMSF, and the solution was allowed to stand on ice for 30 minutes, and then subjected to cell disruption (homogenized). The disruption solution was centrifuged at 10,000×g for 20 minutes at 4° C., and the obtained supernatant was centrifuged at 142,400×g for 60 minutes at 4° C. The obtained precipitate was resuspended in a D-PBS solution containing 1 mM PMSF, and homogenized again to prepare as a microsome fraction. Protein quantification was performed by the CBB method.
A 1 mM compound solution prepared by dissolving the test compound in DMSO was added to a 384-well plate by 100 nL so that the final concentration of the test compound was 10 μM. Next, a substrate solution consisting of 3.4 μM UDP-glucose and 6 μM C8 ceramide was added by 5 μL, followed by an enzyme solution consisting of a 25 μg/mL microsome fraction by 5 μL. C8 ceramide was prepared from liposomes composed of 15 mol % C8 ceramide and 85 mol % dioleoyl phosphatidylcholine (1,2-dioleoyl-sn-glycero-3-phosphocholine: DOPC). The enzymatic reaction was carried out in a solution consisting of 20 mM tris-hydrochloric acid buffer (pH 7.5), 0.01% Tween 20, 0.01% bovine serum albumin and 1 mM dithiothreitol at room temperature for 60 min. Then, a solution consisting of 75% isopropanol and 1% formic acid containing 0.25 μM N-Octadecanoyl-D35-psichosine (catalog number: 1914, Matreya) as an internal standard substance was added by 60 μL to stop the enzymatic reaction. 5 μL of the centrifugal supernatant of the obtained reaction product was analyzed by Rapidfire MS/MS (Agilent Technologies) using API-4000™ (SCIEX), and the C8 glucosylceramide was quantified to evaluate the inhibitory activity of the test compound against the glucosylceramide synthase activity. The inhibitory activity of the test compound was evaluated when the C8 glucosylceramide level in the enzyme-free solution was considered as 100% inhibitory and the enzyme activity of the DMSO group in the absence of the compound was considered as 0% inhibitory.

inhibition at 10 µM | SMILES
95% | O=C1c2ccnc(-c3ccccc3OC(F)F)c2CN1c1ccc(C(F)(F)F)cn1 [Example 67, 4-[2-(difluoromethoxy)phenyl]-2-[5-(trifluoromethyl)pyridin-2-yl]-2,3-dihydro-1H-pyrrolo[3,4-c]pyridin-1-one]
94% | O=C1c2ccnc(-c3ccc(F)cc3OCC(F)(F)F)c2CN1c1ccc(C2(O)CC2)cc1 [Example 225, 4-[4-fluoro-2-(2,2,2-trifluoroethoxy)phenyl]-2-[4-(l-hydroxycyclopropyl)phenyl]-2,3-dihydro-1H-pyrrolo[3,4-c]pyridin-1-one]
88% | CC(C)(O)c1ccc(N2Cc3c(ncnc3-c3ccc(F)cc3OCC(F)(F)F)C2=O)cc1 [Example 192, 4-[4-fluoro-2-(2,2,2-trifluoroethoxy)phenyl]-6-[4-(2-hydroxypropan-2-yl)phenyl]-5,6-dihydro-7H-pyrrolo[3,4-d]pyrimidin-7-one]
100% | O=C1c2ccnc(-c3ccccc3OCC(F)(F)F)c2CN1c1ccc(C(O)(C(F)F)C(F)F)cc1 [Example 246, 2-[4-(1,1,3,3-tetrafluoro-2-hydroxypropan-2-yl)phenyl]-4-[2-(2,2,2-trifluoroethoxy)phenyl]-2,3-dihydro-1H-pyrrolo[3,4-c]pyridin-1-one]
98% | Cc1cc2c(n(-c3ccccc3OCC(F)(F)F)c1=O)CN(c1ccc(C(C)(C)O)cc1)C2=O [Example 337, 6-[4-(2-hydroxypropan-2-yl)phenyl]-3-methyl-1-[2-(2,2,2-trifluoroethoxy)phenyl]-6,7-dihydro-1H-pyrrolo[3,4-b]pyridine-2,5-dione]
100% | Cc1cc2c(c(-c3ccccc3OCC(F)(F)F)n1)CN(c1ccc(C(F)(F)C(C)(C)O)cc1)C2=O [Example 342, 2-[4-(1,1-difluoro-2-hydroxy-2-methylpropyl)phenyl]-6-methyl-4-[2-(2,2,2-trifluoroethoxy)phenyl]-2,3-dihydro-1H-pyrrolo [3,4-c]pyridin-1-one]
98% | CC(C)(O)c1ccc(N2Cc3c(ccnc3-c3ccc(F)cc3OCC(F)F)C2=O)cc1 [Example 241, 4-[2-(2,2-difluoroethoxy)-4-fluorophenyl]-2-[4-(2-hydroxypropan-2-yl)phenyl]-2,3-dihydro-1H-pyrrolo[3,4-c]pyridin-1-one]
93% | COc1ccccc1-c1nccc2c1CN(c1ccc(OC(F)F)nc1)C2=O [Example 27, 2-[6-(difluoromethoxy)pyridin-3-yl]-4-(2-methoxyphenyl)-2,3-dihydro-1H-pyrrolo[3,4-c]pyridin-1-one]
92% | COc1ccccc1-c1nccc2c1CN(c1ccc(OC(F)(F)F)nc1)C2=O [Example 26, 4-(2-methoxyphenyl)-2-[6-(trifluoromethoxy)pyridin-3-yl]-2,3-dihydro-1H-pyrrolo[3,4-c]pyridin-1-one]
91% | O=C1c2ccnc(-c3ccncc3OCC(F)(F)F)c2CN1c1ccc(F)cc1 [Example 77, 2-(4-fluorophenyl)-4-[3-(2,2,2-trifluoroethoxy)pyridin-4-yl]-2,3-dihydro-1H-pyrrolo[3,4-c]pyridin-1-one]
95% | O=C1c2ccnc(-c3ccc(F)cc3OCC(F)(F)F)c2CN1c1ccc(OC(F)F)nc1 [Example 65, 2-[6-(difluoromethoxy)pyridin-3-yl]-4-[4-fluoro-2-(2,2,2-trifluoroethoxy)phenyl]-2,3-dihydro-1H-pyrrolo[3,4-c]pyridin-1-one]
100% | CC(C)(O)c1ccc(N2Cc3c(ccnc3-c3ccccc3OCC(F)(F)F)C2=O)nc1 [Example 273, 2-[5-(2-hydroxypropan-2-yl)pyridin-2-yl]-4-[2-(2,2,2-trifluoroethoxy)phenyl]-2,3-dihydro-1H-pyrrolo [3,4-c]pyridin-1-one]
99% | COc1ccccc1-c1nccc2c1CN(c1ccc(OCC(F)(F)F)cc1)C2=O [Example 50, 4-(2-methoxyphenyl)-2-[4-(2,2,2-trifluoroethoxy)phenyl]-2,3-dihydro-1H-pyrrolo[3,4-c]pyridin-1-one]

The next lines start with the compound.

SMILES | inhibition at 10 µM
CC(C)(O)COc1ccc(N2Cc3c(cn(C4CC4)c(=O)c3-c3ccccc3OCC(F)(F)F)C2=O)cc1 [Example 372, 5-cyclopropyl-2-[4-(2-hydroxy-2-methylpropoxy)phenyl]-7-[2-(2,2,2-trifluoroethoxy)phenyl]-1H-pyrrolo[3,4-c]pyridine-3,6(2H,5H)-dione] | 100%
Cc1cc2c(c(-c3ccccc3OCC(F)F)n1)CN(c1ccc(OCC(C)(C)O)cc1)C2=O [Example 365, 4-[2-(2,2-difluoroethoxy)phenyl]-2-[4-(2-hydroxy-2-methylpropoxy)phenyl]-6-methyl-2,3-dihydro-1H-pyrrolo[3,4-c]pyridin-1-one] | 100%
Cn1nc(N2Cc3c(ccnc3-c3ccc(F)cc3OCC(F)(F)F)C2=O)cc1OC(F)F [Example 309, 2-[5-(difluoromethoxy)-1-methyl-1H-pyrazol-3-yl]-4-[4-fluoro-2-(2,2,2-trifluoroethoxy)phenyl]-2,3-dihydro-1H-pyrrolo[3,4-c]pyridin-1-one] | 60%
O=C(c1ccc(-c2nccc3c2CN(c2ccc(OC(F)F)cc2)C3=O)c(OC(F)F)c1)N1CCC1 [Example 124, 4-[4-(azetidine-1-carbonyl)-2-(difluoromethoxy)phenyl]-2-[4-(difluoromethoxy)phenyl]-2,3-dihydro-1H-pyrrolo[3,4-c]pyridin-1-one] | 98%
COC(=O)c1ccc(N2CC3=C(OC[C@H](C)N=C3c3ccccc3OCC(F)(F)F)C2=O)cc1 [Example 331, methyl 4-{(3S)-3-methyl-8-oxo-5-[2-(2,2,2-trifluoroethoxy)phenyl]-2,3,6,8-tetrahydro-7H-pyrrolo [3,4-f][1,4]oxazepin-7-yl}benzoate] | 91%
O=C1c2ccnc(-c3ccc(F)cc3OCc3ccccc3)c2CN1c1ccc(OC(F)F)cc1 [Example 114, 4-[2-(benzyloxy)-4-fluorophenyl]-2-[4-(difluoromethoxy)phenyl]-2,3-dihydro-1H-pyrrolo[3,4-c]pyridin-1-one] | 99%
COC(=O)c1ccc(N2CC3=C(OC[C@@H](C)N=C3c3ccccc3OCC(F)(F)F)C2=O)cc1 [Example 333, methyl 4-{(3R)-3-methyl-8-oxo-5-[2-(2,2,2-trifluoroethoxy)phenyl]-2,3,6,8-tetrahydro-7H-pyrrolo [3,4-f][1,4]oxazepin-7-yl}benzoate] | 97%
COC(=O)c1ccc(-c2nccc3c2CN(c2ccc(F)cc2)C3=O)c(OC(F)F)c1 [Example 34, methyl 3-(difluoromethoxy)-4-[2-(4-fluorophenyl)-1-oxo-2,3-dihydro-1H-pyrrolo[3,4-c]pyridin-4-yl]benzoate] | 83%
O=C1c2ccnc(-c3ccc(F)cc3OCC(F)(F)F)c2CN1c1cnn(CC(F)(F)F)c1 [Example 83, 4-[4-fluoro-2-(2,2,2-trifluoroethoxy)phenyl]-2-[1-(2,2,2-trifluoroethyl)-1H-pyrazol-4-yl]-2,3-dihydro-1H-pyrrolo[3,4-c]pyridin-1-one] | 91%
O=C1c2ccnc(-c3ccc(F)cc3OCC3CC3)c2CN1c1ccc(OC(F)F)cc1 [Example 129, 4-[2-(cyclopropylmethoxy)-4-fluorophenyl]-2-[4-(difluoromethoxy)phenyl]-2,3-dihydro-1H-pyrrolo[3,4-c]pyridin-1-one] | 99%
